Source: US9650405B2, “Modified sophorolipids as oil solubilizing agents” (Polytechnic Institute of New York University, priority 2010, dated 2017)
Like-named read-outs stand apart in the source and are kept apart here.

Columns and labels:
[1] = Emulsion type: dilution test and oil soluble dye staining; assay type: physicochemical; conditions: 2%-by-weight relative to water phase, oil/water 5/5 and 7/3
Description: In this test the emulsion is diluted either with oil (O) or water (W). If the emulsion is O/W type and it is diluted with water, it will remain stable as water is the dispersion medium. However, if the emulsion is O/W type and it is diluted with oil, the emulsion will break as oil and water are not miscible with each other. […] Emulsions of the O/W type have separated layers after dilution with pure oil but form a homogenous phase when diluted by water. Unless otherwise specified, the emulsion type formed by MSLs were oil in water.
In FIG. 13B, the tube on the left was diluted with 1 mL of oil whereas the tube on right was diluted with water. Visual observation of the tubes in FIG. 13B supports that the emulsions formed are indeed O/W emulsions.
Oil Red O was applied as an oil soluble dye and emerald green as water soluble dye in the process of emulsion preparation. Observations of emulsions were made before and after staining under optical microscope at 400× magnification (FIG. 14). […] The formation of O/W emulsions and not W/O emulsions with this set of MSL compounds would not be obvious to one skilled in the art. We believe that O/W emulsions are formed by this set of MSLs due to that large sophorose polar head groups requires relatively more space than the lipid tails and, therefore self-assemble into spherical type structures where disaccharide groups are locating outside the droplets.

[2] = SL-esters; from earlier publication in Colloids and surfaces, 2004, 240, 75; cited from earlier work
[3] = Solubility in distilled water without additives, compounds alone and mixed; conditions: without any additives
[4] = Emulsion stability based on phase separation; assay type: physicochemical; conditions: paraffin oil/water 5/5, 2%-by-weight emulsifier, after 24 hours at 25° C.
Description: The emulsion was obtained by homogenizing the oil and water mixture and was allowed to settle at room temperature for 24 hours. […] Then, this mixture was homogenized at 13,000 rpm for 2 minutes. Thereafter, the resulting emulsion was left unagitated at 25° C. for 24 hours. Surfactants which give a larger emulsion phase are denoted as having higher emulsion effectiveness (Process Safety and Environment protection, 2005, 83, 38-46). […] Thus, unexpectedly, that longer alkyl chains, at least up to butyl and hexyl, provided improved interfacial stability at the paraffin oil/water interface. […] Apparently, ester bonds of SL-esters are less disruptive to organization at the oil water interface than amide bonds of SL-amides. […] The acidic SL (3) gave an 8% emulsion layer, much lower than the MSL examples given herein. Similarly, the natural SL (1) mixture gave a 10% emulsion layer. This performance is also far below that of SL-butyl amide (24), hexyl amide (25), butyl ester (8) and hexyl ester (16).
After homogenized at 13,000 rpm for 2 minutes, the emulsions were kept at room temperature and separation of the respective oil, emulsion and water layers was recorded for up to 1 month.

[5] = Crude oil clearing/displacement activity; conditions: 20 μL of 1 mg/mL solution
Description: Oil cleaning assays were performed using Louisiana Crude, Arabian Light Crude, and Prudhoe Bay Crude as the oil phase. In one study, the oil clearing/displacement activity of MSLs were assessed using a crude oil layer on top of sea water in order to simulate oil spill type conditions. Sea water (20 mL) was transferred to plastic Petri dishes and 20 μL of a crude oil type was added on top of the water to create an oil layer. Subsequently, a 20 μL aliquot of MSL solution (1 mg/mL) was added dropwise to the top of the oil layer. The instantaneous formation of an oil clearing zone as well as the diameter of the clearing zone was determined as a function of the dispersant used. […] Furthermore, the oil displacement activity of SL-ethyl ester and SL-butyl ester was slightly higher than Triton-X-100 for Arabian Light crude.

[6] = Solubility of MSLs in water
From the text: If the material precipitates upon cooling or was to some extent insoluble, the insoluble material was separated by filtration, dried and weighed.

[7] = Crude oil emulsification activity (turbidity at 610 nm); conditions: emulsifier 1 mg/mL
Description: Emulsification activity was assessed using Louisiana Crude, Arabian Light Crude, and Prudhoe Bay Crude as the oil phase. A 2 mL solution with emulsifier concentration of 1 mg/mL was prepared. A crude oil (10 mg) was added to the emulsifier aqueous solution, the mixture was vortexed for one minute and the emulsified mixture was allowed to stand for 20 minutes. Emulsification activity was determined by measuring turbidity of the emulsion mixture in a spectrophotometer at 610 nm. The results obtained using SL-ethyl ester, SL-butyl ester, the natural sophorolipid mixture and Triton X-100 as emulsifiers are expressed as D610 and are listed in Table 8. […] Furthermore, a remarkable improvement in emulsification activity was obtained for SL-butyl ester relative to the natural sophorolipid mixture. These comparative results for emulsification of Louisiana Crude, Arabian Light Crude, and Prudhoe Bay Crude oil phase could not be anticipated by one skilled in the art.

[8] = Arabian Light Crude on sea water

SMILES | emulsion type by Oil Red O staining [1] | CMC Range [2] | MST (minimum surface tension) [2] [mN/m] | solubility in distilled water [3] | emulsion layer percentage [4] | Oil displacement activity (diameter of the clearing zone) [5, 8] [cm] | Oil displacement activity (diameter of the clearing zone) ([5]; Louisiana Crude on sea water) [cm] | Oil displacement activity (diameter of the clearing zone) ([5]; Prudhoe Bay Crude on sea water) [cm] | Solubility ([6]; distilled water, 25° C.) [µg/mL] | Solubility ([6]; distilled water, 25° C., listed as methyl ester) [µg/mL] | Emulsification activity (D610) ([7]; Arabian Crude) | Emulsification activity (D610) ([7]; Louisiana Crude) | Emulsification activity (D610) ([7]; Prudhoe Crude) | Solubility [6] [µg/mL]
COC(=O)CCCCCCCC=CCCCCCCC(C)OC1OC(CO)C(O)C(O)C1OC1OC(CO)C(O)C(O)C1O (stereo not shown) [Compound 6, SL-Methyl Ester] | O/W | 95-100 10^−6M | 38.4 | less than 1 mg/L | no emulsion layer was observed | 5.5 ± 0.1 | 6.5 ± 0.4 | 6.9 ± 0.1 | <1000 | < 1000 |  |  |  | 
CCOC(=O)CCCCCCCC=CCCCCCCC(C)OC1OC(CO)C(O)C(O)C1OC1OC(CO)C(O)C(O)C1O (stereo not shown) [Compound 7, SL-Ethyl Ester] | O/W | 36-40 10^−6M | 37.5 | less than 1 mg/L | no emulsion layer was observed | 6.5 ± 0.2 | 6.3 ± 0.9 | 6.6 ± 0.7 |  |  | 0.91 | 0.42 | 0.32 | <3000
